Values of other authors, collected in US12059469B2, “Compositions and methods for wound treatment” (priority 2017, dated 2024).

What was measured:
mouse ear punch wound = conditions: topical application, dissolved in DMSO
[1] = system: Wnt/β-catenin-mediated transcription; conditions: through TNK 1 and 2 inhibition

Oc1nc(-c2ccc(C(F)(F)F)cc2)nc2c1CSCC2 [XAV939, 3,5,7,8-Tetrahydro-2-[4-(trifluoromethyl)phenyl]-4H-thiopyrano[4,3-d]pyrimidin-4-one]
aqueous solubility: < 1000 µg/mL | fibrosis (scarring) (mouse ear punch wound): reduced fibrosis | rate of wound closure (mouse ear punch wound): significantly increased rate of wound closure | Wnt/β-catenin-mediated transcription [1]: selectively inhibits | effect on TGF-β (TGF-β): does not affect | effect on CRE (CRE): does not affect | effect on NF-κK (NF-κK): does not affect
